How the values were obtained:
[1] = test system: Na^+—K^+ pump; experiment: Whole-cell patch clamp measurement of Na+-K+ pump current (Ip) in isolated cardiac myocytes; type: cell-based, rabbit
Text: The whole-cell patch clamp technique (Hamill et al, 1981; Buhagier et al, 2004; Hansen et al, 2002) was used to examine the effect of β3 adrenoceptor stimulation on the Na^+—K^+ pump in isolated cardiac myocytes.
With the whole-cell patch clamp technique myocytes are suspended in a tissue bath mounted on the stage of an inverted microscope. A fine glass pipette is attached to the cell membrane and gentle suction applied to rupture the membrane patch directly under the tip of the glass pipette. This allows the intracellular compartment of the myocyte to be perfused with solution contained in the patch pipette. It also allows access of drugs and compounds to the intracellular compartment. Control of the composition of the extracellular solution in the tissue bath is achievable. The technique also allows control of membrane voltage and measurement of total membrane current.
The Na^+—K^+ pump's 3Na^+:2K^+ exchange ratio generates a current (Ip) that can be measured as the shift in holding current of the patch-clamped myocyte that is induced by pump blockade with 100 μM ouabain.
In the whole-cell configuration the bath was perfused with modified Tyrode's solution which contained (in mmol/L) NaCl 140; KCl 5.6; CaCl2 2.16; MgCl2 1; NaH2PO4 0.44; glucose 10 and Na-glutamate 9; N-2-hydroxyethyl piperazine-N′-2-[…] (HEPES) 10. The solution was titrated to a pH of 7.40±0.01 at 35° C. with NaOH.
For measurement of Ip the system was switched to a superfusate that usually was identical to the modified Tyrode's solution except that it was nominally Ca^2+-free and contained 0.2 mmol/L CdCl2 and 2 mmol/L BaCl2.
Wide-tipped patch pipettes (4-5 μm) were filled with solutions containing (in mmol/L) HEPES 5; MgATP 2; ethylene glycol-bis(β-aminoethyl ether)-N,N,N′,N′-tetraacetic acid (EGTA) 5; KCl 70 mmol/L. Osmotic balance was maintained with 80 mmol/L tetramethylammonium chloride (TMA-Cl). The solutions were titrated to a pH of 7.05±0.01 at 35° C. with 1 mmol/L TMA-OH. Ip was identified at a holding potential of −40 mV as the shift in holding current induced by Na^+—K^+ pump blockade with 100 μmol/L ouabain 10-15 minutes after the whole-cell configuration had been established. […] Details of patch pipette characteristics and equipment and criteria for defining Ip have been reported previously (Buhagiar et al, 1999).
The whole-cell patch clamp technique was similar to that described above except that extracellular Na^+ was eliminated (NaCl was replaced with N-methyl-D-glucamine (NMG.Cl)) to rule out any possible influx of Na^+ across the cell membrane.

[2] = test system: model of ischaemic cardiomyopathy with severe heart failure induced by repeated coronary microembolisation in sheep; experiment: Sheep heart failure model, left ventricular end systolic pressure-volume relationship (ESPVR); type: in vivo; details: intravenous infusion, increasing doses, mean of 3 sheep, FIG. 6
Protocol: To examine the effect of acute activation of the β3-receptor we used a model of ischaemic cardiomyopathy with severe heart failure induced by repeated coronary microembolisation in sheep (Huang, Y et al., Am J Physiol 286: H2141-50, 2004). The model is stable and reflects the human condition well (Huang et al, 2004).
BRL 37344 was administered by intravenous infusion over a period of 8 min, starting with the lowest dose of the protocol. After an additional 5 min pressure-volume relationships were determined as described (Huang et al., 2004). The procedure was then repeated in an identical fashion using a larger dose of BRL 37344. The left ventricular end systolic pressure-volume relationship (ESPVR) was used as an index of cardiac performance. ESPVR is relatively independent of confounding factors such as pre- and after-load and heart rate, and is widely accepted as a good index of left ventricular function.
Results are shown in FIG. 6, both before and after induction of heart failure. The independent variable on the abscissa indicates the dose in microgram BRL 37344 per kg weight of the sheep. Note the logarithmic increment in dose. The mean of ESPVR measured in 3 different sheep before and after induction of severe heart failure is shown on the ordinate. […]

[3] = test system: PKA; details: H-89 0.5 μM; cited from earlier work

With O=C(Nc1ncnc2c1ncn2[C@@H]1O[C@@H]2COP(=O)(O)OC2C1O)c1ccccc1 (stereo in doubt) [6-Bnz-cAMP] the “Effect on Ip” value ([1]; 100 μM 6-Bnz-cAMP in patch pipette solution, NA-free control superfusate, FIG. 5) was “significant decrease in Ip”.

In the case of C[C@H](Cc1ccc(OCC(=O)O)cc1)NC[C@H](O)c1cccc(Cl)c1 [BRL 37344], the “BRL 37344-induced stimulation of the Na,K-pump in the absence of extracellular Na^+” value ([1]; 10 nM BRL 37344, NaCl replaced by NMG.Cl, FIG. 3) was “persisted in the absence of extracellular Na^+”, the “Na,K-pump activity at 100 nM in comparison with activity observed with 10 nM” value ([1]; 100 nM vs 10 nM BRL 37344, pipette Na 10 mM, FIG. 1) was “apparent lower activity” and the “Na^+—K^+ pump current (Ip) in comparison with normal controls” value ([1]; BRL 37344 1 nM, 10 nM and 100 nM, pipette Na 10 mM, FIG. 1) was “significantly stimulates”. The “Slope of linear regression of log dose vs. ESPVR” value ([2]; normal sheep (before induction of heart failure)) was “trend towards a negative slope” and the “Slope of linear regression of log dose vs. ESPVR” value ([2]; sheep after induction of severe heart failure) was “significantly positive”.

For Cl.Cl.O=S(=O)(NCCNCC=Cc1ccc(Br)cc1)c1cccc2cnccc12 [H-89, N-[2-(p-Bromocinnamylamino)ethyl]-5-isoquinolinesulfonamide dihydrochloride], the “Effect on 6-Bnz-cAMP-induced decrease in Ip” value ([1]; H-89 0.5 μM + 6-Bnz-cAMP 100 μM in pipette solution, FIG. 5) is listed as “reversed the 6-Bnz-cAMP-induced decrease in Ip” and the “Effect on PKA-mediated Na^+—K^+ pump inhibition” value [3] is listed as “abolishes PKA-mediated Na^+—K^+ pump inhibition”.

With NC[C@H](O)c1ccc(O)c(O)c1 [NA, noradrenaline] the “NA-induced increase in Ip with β1/β2 blockade” value ([1]; 10 nM NA + 1 μM nadolol, FIG. 4) was “persisted in the presence of nadolol”, the “NA-induced increase in Ip with PKA blockade” value ([1]; 10 nM NA, 0.5 μM H-89 in patch pipette solution, FIG. 4) was “persisted with PKA blockade” and the “Effect on Ip” value ([1]; 10 nM NA, FIG. 4) was “induced an increase in Ip”.

With CC(C)(C)NCC(O)COc1cccc2c1CC(O)C(O)C2 (stereo not drawn) [nadolol] the “Na,K-pump activity with nadolol in the presence of 100 nM BRL 37344 compared to 100 nM BRL 37344 alone” value ([1]; nadolol 1 μM + 100 nM BRL 37344 in superfusate, FIG. 2) was “increased, although not quite significantly”.

From patent US20080249176A1, “Methods and Compositions for the Treatment of Myocardial Conditions” (priority 2004, published 2008)
